# Patent US6207677A, “Piperidine derivatives having anxiolytic effect” (H. Lundbeck A/S, priority 1991, dated 2001)
# Target: sigma receptors
# Test: Inhibition of 3H-DTG binding to sigma receptors in rat brain in vitro
# Details: 2 nM 3H-DTG, rat brain without cerebellum, 25° C., 20 min
# Experimental: INHIBITION OF 3H-DTG BINDING TO SIGMA RECEPTORS IN RAT BRAIN IN VITRO
# By this method the inhibition by drugs of the binding of 2 nM ^3 H-DTG (1,3,di-o-tolyl guanidine) to sigma receptors in homogenates or membranes from rat brain without cerebellum is determined in vitro as modified from Weber et al. Proc. Natl. Acad. Sci. 1986, 83,8784.
# Homogenate: Rats (150-250 g) are decapitated and the brains (without cerebellum) quickly removed and placed on ice, weighed and homogenized in 100 vol ice-cold (0° C.) 50 mM Tris-buffer (pH 7.7) in an ethanol rinsed glass/teflon homogenizer at 0° C. and kept on ice until use.
# P2-membranes: Brains are homogenized in 10 vol 0.32 M sucrose in an ethanol rinsed glass/teflon homogenizer with 10 strokes up and down. The homogenate is centrifuged for 10 min at 900×gm at 4° C. The supernatant is decanted and centrifuged for 20 min at 50,000 gm at 4° C. The resulting pellet is resuspended in 10 vol ice-cold […] Tris-buffer (pH 7.7) and incubated for 30 min. at 37° C. The membrane suspension is then centrifuged for further 20 min. at 50,000 gm at 4° C. The pellet is resuspended in 50 vol. of ice-cold Tris-buffer and used immediately.
# 0.5 ml 50 mM Tris-buffer (pH 7.7), 0.25 ml displacer (6×100 μM DTG, 6× [test compound], or Tris-buffer), and 0.25 ml 6×2 nM. ^3 H-DTG are mixed into 5 ml s plastic test tubes and kept at 4° C. until use. The binding reaction is initiated by mixing 0.5 ml tissue suspension into this solution and incubate at 25° C. for 20 min. Glass fiber filters (Whatman GF/B) are placed on the filter machine which is then closed tightly. Just before filtration vacuum is applied, and the filters washed with 0.1% PEI solution from a spray bottle followed by one wash with Tris-buffer.
# The binding reaction is stopped by filtration of the assay mixture at reduced pressure (750 mbar) followed by further 3 washes with 5 ml ice-cold Tris-buffer. The filters are then placed in counting vials and 4 ml scintillation solution added. The vials are counted in a Beckmann scintillation counter.
# 50 mM Tris-buffer pH 7.7: 7.38 g Trizma--7.7 plus distilled H2 O ad 1 liter. 100 ml 10% polyethylenimine (PEI): 100 ml dest. H2 O is added to approx. 20 g 50% PEI which is solubilized by stirring and heating. Diluted (1+99) before use. 6×2 nM ^3 H-DTG: The exact volume depends on the actual concentration of the batch, but is made as close as possible to 12 nM. The containers for the radioactive solution is rinsed in 96% ethanol before use.
# ^3 H-DTG was obtained from NEN Research Products, Du Pont Denmark. Specific activity 62.3 Ci/mmol.
# The known sigma receptor ligands BMY 14802 and rimcazole were included in the test for comparison purposes.
row,SMILES,IC50 [pM]
1,"c1ccc(CCCN2CCC3(CC2)OCc2ccccc23)cc1 [Compound 4d, 1'-(3-Phenyl-1-propyl)-spiro[isobenzofuran-1(3H),4'-piperidine]]",1100
2,"c1ccc(CCCCCN2CCC3(CC2)OCc2ccccc23)cc1 [Compound 4e, 1'-(5-Phenyl-1-pentyl)-spiro[isobenzofuran-1 (3h),4'-piperidine]]",200
3,"CCCCCCCCCCCCCCCCCCN1CCC2(CC1)OCc1ccccc12 [Compound 4g, 1'-Octadecanyl-spiro[isobenzofuran-1(3H),4'-piperidine]]",46000
4,"Fc1ccc(-n2cc(CCCCN3CCC4(CC3)Cc3ccccc3CO4)c3ccccc32)cc1 [Compound 5b, 1,4-Dihydro-1'-[4-[1-(4-Fluorophenyl)-3-indolyl]-1-butyl]spiro[3H-2-benzopyran-3,4'-piperidine]]",1100
5,"c1ccc2c(c1)COC21CCN(CCCCc2cn(-c3ccsc3)c3ccccc23)CC1 [Compound 5c, 1'-(4-(1-(3-Thienyl)-3-indolyl]-1-butyl]spiro[isobenzofuran-1(3H),4'-piperidine]]",250
6,"c1csc(-n2cc(CCCCN3CCC4(CC3)OCc3ccccc34)c3ccccc32)c1 [Compound 5d, 1'-[4-[1-(2-Thienyl)-3-indolyl]-1-butyl]spiro[isobenzofuran-1(3H),4'-piperidine]]",240
7,"c1ccc2c(c1)COC21CCN(CCCCc2cn(-c3ccoc3)c3ccccc23)CC1 [Compound 5e, 1'-[4-[1-(3-Furanyl)-3-indolyl]-1-butyl]spiro[isobenzofuran-1(3H),4'-piperidine]]",4700
8,"Fc1ccc(-n2cc(CCCCN3CCC(c4ccccc4)CC3)c3ccccc32)cc1 [Compound 5f, 1-(4-Fluorophenyl)-3-[4-(4-phenyl-1-piperidyl)-1-butyl]indole]",40
9,"c1ccc2c(c1)COC21CCN(CCCCc2cn(-c3ccncc3)c3ccccc23)CC1 [Compound 5g, 1'-[4-[1-(4-Pyridyl)-3-indolyl]-1-butyl]spiro[isobenzofuran-1(3H),4'-piperidine]]",4000
10,"CS(=O)(=O)n1cc(CCCCN2CCC3(CC2)OCc2ccccc23)c2ccccc21 [Compound 6a, 1'-(4-(1-Methanesulfonyl-3-indolyl)-1-butyl)spiro[isobenzofuran-1(3 H),4'-piperidine]]",50
11,"Cc1ccc(S(=O)(=O)n2cc(CCCCN3CCC4(CC3)OCc3ccccc34)c3ccccc32)cc1 [Compound 6b, 1'-(4-(1-p-Toluenesulfonyl-3-indolyl)-1-butyl)spiro[isobenzofuran-1(3H),4'-piperidine]]",170
12,"O=S(=O)(c1cccs1)n1cc(CCCCN2CCC3(CC2)OCc2ccc(F)cc23)c2ccccc21 [Compound 6c, 6-Fluoro-1'-(4-(1-(2-thienyl)sulfonyl-3-indolyl)-1-butyl)spiro[isobenzofuran-1(3H),4'-piperidine)]",< 100
13,"CC(=O)n1cc(CCCCN2CCC3(CC2)OCc2ccccc23)c2ccccc21 [Compound 7, 1'-(4-(1-Acetyl-3-indolyl)-1-butyl)spiro[isobenzofuran-1 (3H),4'-piperidine]]",210
14,"Fc1ccc(-n2cc(OCCCN3CCC4(CC3)OCc3ccccc34)c3ccccc32)cc1 [Compound 8a, 1'-[3-[1-(4-Fluorophenyl)-3-indolyloxy]-1-propyl]spiro[isobenzofuran-1(3H),4'-piperidine]]",210
15,"Fc1ccc(-n2cc(OCCCN3CCC4(CC3)OCc3ccccc34)c3ccc(Cl)cc32)cc1 [Compound 8b, 1'-[3-[6-Chloro-1-(4-fluorophenyl)-3-indolytoxy)-1-propyl]spiro[isobenzofuran-1(3M),4'-piperidine]]",1700
16,Fc1ccc(-n2cc(OCCCN3CCC4(CC3)OCc3ccccc34)c3cc(Cl)ccc32)cc1 [Compound 8c],660
17,"Cc1ccc(C2CCN(CCCOc3cn(-c4ccc(F)cc4)c4ccc(Cl)cc34)CC2)cc1 [Compound 8d, 5-Chloro-1-(4-fluorophenyl)-3-[3-(4-(4-methylphenyl)-1-piperidinyl)-1-propyloxy]indol]",11000

row,SMILES,IC50 [pM]
1,"Fc1ccc(-n2cc(CCCCN3CCC4(CC3)COCc3ccccc34)c3ccccc32)cc1 [Compound 9a, 1'-[4-[1-(4-Fluorophenyl)-3-indolyl]-1-butyl]spiro[1H-2-benzopyran-4(3H), 4'-piperidine]]",340
2,"Fc1ccc(-n2cc(CCCCN3CCC4(CC3)OCc3ccccc34)c3cc(F)ccc32)cc1 [Compound 9b, 1'-[4-[5-Fluoro-1-(4-fluorophenyl)-3-indolyl]-1-butyl]spiro[isobenzofuran-1(3H), 4'-piperidine]]",60
3,"Fc1ccc(-n2cc(CCCCN3CCC4(CC3)SCc3ccccc34)c3ccccc32)cc1 [Compound 9c, 1'-[4-[1-(4-Fluorophenyl)-3-indolyl]-1-butyl]spiro[benzo[c]thiophene-1(3H),4'-piperidine]]",140
4,Fc1ccc(-n2cc(CCCCN3C4CCC3CC3(C4)OCc4ccccc43)c3ccccc32)cc1 (stereo not shown) [Compound 9d],26000
5,"Fc1ccc(-n2cc(CCCCN3CCC4(CC3)OCc3cccc(F)c34)c3ccccc32)cc1 [Compound 9g, 7-Fluoro-1'-[4-[1-(4-fluorophenyl)-3-indolyl]-1-butyl]spiro[isobenzofuran-1(3H), 4'-piperidine]]",4200
6,"Cc1ccc2c(c1)COC21CCN(CCCCc2cn(-c3ccc(F)cc3)c3ccccc23)CC1 [Compound 9h, 1'-[4-[1-(4-Fluorophenyl)-3-indolyl]-1-butyl]-5-methylspiro[isobenzofuran-1(3H),4'-piperidine]]",2300
7,"Cc1ccc(-n2cc(CCCCN3CCC4(CC3)COCc3ccccc34)c3ccccc32)cc1 [Compound 9i, 1'-(4-(1-(4-Methylphenyl)-3-indolyl]-1-butyl]spiro[1H-2-benzopyran-4(3H), 4'-piperidine]]",620
8,"Fc1ccc2c(c1)c(CCCCN1CCC3(CC1)OCc1ccccc13)cn2-c1ccsc1 [Compound 9j, 1'-[4-[5-Fluoro-1-(3-thienyl)-3-indolyl]-1-butyl]-spiro[isobenzofuran-1(3H),4'-piperidine]]",110
9,"c1cncc(-n2cc(CCCCN3CCC4(CC3)COCc3ccccc34)c3ccccc32)c1 [Compound 9k, 1'-[4-[1-(3-Pyridinyl)-3-indolyl]-1-butyl]spiro[1H-2-benzopyran-4(3H), 4'-piperidine]]",920
10,"Fc1ccc(C2CCN(CCCCc3cn(-c4ccc(F)cc4)c4ccccc34)CC2)cc1 [Compound 9l, 1-(4-Fluorophenyl)-3-[4-(4-(4-fluorophenyl)-1-piperidyl)-1-butyl]indole]",140
11,"Cc1ccc(C2CCN(CCCCc3cn(-c4ccc(F)cc4)c4ccccc34)CC2)cc1 [Compound 9m, 1-(4-Fluorophenyl)-3-[4-(4-(4-methylphenyl)-1-piperidyl)-1-butyl]indole]",1600
12,"CC(C)c1ccc(C2CCN(CCCCc3cn(-c4ccc(F)cc4)c4ccccc34)CC2)cc1 [Compound 9n, 1-(4-Fluorophenyl)-3-[4-(4-(4-isopropylphenyl)-1-piperidyl)-1-butyl]indole]",6300
13,"CN(C)c1ccc(C2CCN(CCCCc3cn(-c4ccc(F)cc4)c4ccccc34)CC2)cc1 [Compound 9o, 1-(4-Fluorophenyl)-3-[4-(4-(4-dimethylaminophenyl)-1-piperidyl)-1-butyl]indole]",6700
14,"Fc1ccc(C2CCN(CCCCc3cn(-c4ccccc4)c4ccccc34)CC2)cc1 [Compound 9p, 1-Phenyl-3-[4-(4-(4-fluorophenyl)-1-piperidyl)-1-butyl]indole]",280
15,"c1ccc2c(c1)COC21CCN(CCCCc2cn(-c3nccs3)c3ccccc23)CC1 [Compound 9q, 1'-[4-(1-(2-Thiazolyl)-3-indolyl)-1-butyl]spiro[isobenzofuran-1(3H) ,4'-piperidine]]",120
16,"Fc1ccc(-n2cc(CCCCN3CCC4(CC3)OCc3c(F)cccc34)c3ccccc32)cc1 [Compound 9s, 4-Fluoro-1'-[4-[1-(4-fluorophenyl)-3-indolyl]-1-butyl]spiro[isobenzofuran-1(3H),4'-piperidine]]",56000
17,"Fc1ccc(-n2cc(CCCCN3CCC(c4cccc(C(F)(F)F)c4)CC3)c3ccccc32)cc1 [Compound 9t, 1-(4-Fluorophenyl)-3-[4-(4-(3-trifluoromethylphenyl)-1-piperidyl)-1-butyl]indole]",3200
